Molecular target: T1, OxyR (OxyR-His) (Xanthomonas campestris, UniProt Q8PCA2)
T1 sequence (Q8PCA2 1-313): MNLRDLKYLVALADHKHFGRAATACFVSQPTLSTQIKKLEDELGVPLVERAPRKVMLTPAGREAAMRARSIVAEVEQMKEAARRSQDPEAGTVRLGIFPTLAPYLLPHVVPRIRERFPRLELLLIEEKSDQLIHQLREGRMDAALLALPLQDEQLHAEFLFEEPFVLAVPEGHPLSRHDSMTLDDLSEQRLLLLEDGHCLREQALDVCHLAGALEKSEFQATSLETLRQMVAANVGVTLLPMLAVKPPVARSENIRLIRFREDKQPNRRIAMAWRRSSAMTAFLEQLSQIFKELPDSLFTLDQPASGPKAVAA
Assay: microscale thermophoresis
Type: binding

SMILES: C[S@@+]([O-])CCCCN=C=S [sulforaphane]
- Kd: 325 ± 105 nM

From paper PMC9452769 (Molecular Plant Pathology, 2022)
